Here are results for ten molecules from patent publication EP0023569A1, “Derivatives of carboxylic acids, their preparation and medicaments containing them” (Dr. Karl Thomae GmbH, priority 1979, dated 1981).

This data set has as its system weiblichen und männlichen Mäusen. The data set is described as follows: Acute toxicity in mice after a single oral dose. It counts as in vivo. To be noted: observation at least 7 days; for orientierende Toxizität: single dose p.o., suspension in 1% methylcellulose. The source says: Bei weiblichen und männlichen Mäusen eigener Zucht mit dem Gewicht von 20-26 g wurde die toxische Wirkung der Substanzen nach oraler Gabe (Suspension in 1%iger Methylcellulose) einer einmaligen Dosis bei einer Nachbeobachtungszeit von mindestens 7 Tagen geprüft. Die nachfolgende Tabelle enthält die gefundenen Werte: […]

[1] abbreviates: single dose of 1 000 mg/kg p.o.
The mark [2] stands for this setting: single dose of 2 000 mg/kg p.o.

On to `CC1CN(c2ccc(Cl)cc2C(=O)NCCc2ccc(C(=O)O)cc2)CC(C)O1` (centres unmarked) [T, 4-[-(5-Chlor-2-(2,6-dimethyl-morpholino)-benzoylamino)-äthyl]benzoesäure], for which the “orientierende Toxizität” value is given as > 1 000 mg/kg. The Tieren gestorben under setting [1] came out at 0 von 10.
For `O=C(O)c1ccc(CCNC(=O)c2cc(Br)ccc2N2CCCCCCC2)cc1` [W, 4-[2-(5-Brom-2-heptamethylenimino-benzoylamino)-äthyl]-benzoesäure], the “orientierende Toxizität” value is listed as > 1 000 mg/kg. In addition, under setting [1], the Tieren gestorben is given as 0 von 6.
On to `O=C(O)c1ccc(CCNC(=O)c2cc(Cl)ccc2N2CCCCCC2)cc1` [O, 4-[2-(5-Chlor-2-hexamethylenimino-benzoylamino)-äthyl]-benzoesäure], for which the “orientierende Toxizität” value is given as > 1 000 mg/kg. Also, the Tieren gestorben under setting [1] is 0 von 10.
`CN(C)c1ccc(Cl)cc1C(=O)NCCc1ccc(C(=O)O)cc1` [A, 4-[2-(5-Chlor-2-dimethylamino-benzoylamino)-äthyl]benzoe-säure]: the “orientierende Toxizität” value is listed as > 2 000 mg/kg. In addition, the Tieren gestorben under setting [2] is reported as 0 von 6.
As for `O=C(O)c1ccc(CCNC(=O)c2cc(Cl)ccc2N2CCCCC2)cc1` [D, 4-[2-(5-Chlor-2-piperidino-benzoylamino)-äthy]benzoesäure], the “orientierende Toxizität” value is on record as > 2 000 mg/kg. The molecule also displayed a Tieren gestorben under setting [2] of 0 von 6.
As to `O=C(O)c1cc(Cl)ccc1N1CCC2(CC1)OCCO2` [KK, 5-Chlor-2-(1,4-dioxa-8-aza-spiro[4,5]decan-8-yl)-benzoe-säure], the “orientierende Toxizität” value is > 2 000 mg/kg. Under setting [2], this molecule registered a Tieren gestorben of 0 von 10.
For `CCOC(=O)c1ccc(CCNC(=O)c2cc(Br)ccc2N2CCCCCCC2)cc1` [V, 4-[2-(5-Brom-2-heptamethylenimino-benzoylamino)-äthyl]benzoesäure-äthylester], the “orientierende Toxizität” value is > 1 000 mg/kg. Under setting [1], the Tieren gestorben is 0 von 10.
For `O=C(O)c1ccc(CCNC(=O)c2cc(Cl)ccc2N2CCCCCCCC2)cc1` [X, 4-[2-(5-Chlor-2-octamethylenimino-benzoylamino)-äthyl]-benzoesäure], the “orientierende Toxizität” value is reported as > 1 000 mg/kg. This molecule also displayed a Tieren gestorben under setting [1] of 0 von 6.
Regarding `CN(C)c1ccc(Br)cc1C(=O)NCCc1ccc(C(=O)O)cc1` [B, 4-[2-(5-Brom-2-dimethylamino-benzoylamino)-äthyl]benzoesäure], the “orientierende Toxizität” value is reported as > 1 000 mg/kg. Under setting [1], this molecule registered a Tieren gestorben of 0 von 5.
With `COC(=O)c1ccc(CCNC(=O)c2cc(Cl)ccc2N2CC(C)CC(C)C2)cc1` (centres unmarked) [H, 4-[2-(5-Chlor-2-(3,5-dimethyl-piperidino)-benzoylamino)-äthy]benzoesäure-methylester], the “orientierende Toxizität” value is reported as > 1 000 mg/kg. In addition, the Tieren gestorben under setting [1] turned out to be 0 von 6.
